Read-outs that look alike come from different tables or passages of the source.
Tests used:
[1] = tested on: RNA Polymerase II Serine 5 phosphorylation in A549 cells overexpressing CDK7-mutant (C312S); assay: Imaging-based cellular RNA PolII Ser5 phosphorylation assay in A549 cells overexpressing CDK7-mutant (C312S); assay type: cell-based, human; conditions: RNA PolII Ser5 phosphorylation, averaged over all measurements; for IC50: Homo sapiens, A549, A549 cells overexpressing CDK7-mutant (C312S), read-out: CDK7_A549 mutant hCDK7(pIC50) (converted); for CDK7_A549 mutant hCDK7(pIC50): A549 cells overexpressing CDK7-mutant (C312S)
In short: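 A549 cells overexpressing CDK7 C312S (with endogenous wild-type CDK7) were treated with compound for 3 h at 37 °C in 1% FBS medium. Phospho-Rpb1 CTD Ser5 was immunostained after fixation and imaged. IC50 came from curve fit of % control, normalised to DMSO and 10 μM reference-compound controls.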

[2] = tested on: RNA Polymerase II Serine 5 phosphorylation (Rpb1 CTD, downstream substrate of CDK7) in A549 cells; assay: Imaging-based cellular RNA PolII Ser5 phosphorylation assay in A549 cells; assay type: cell-based, human; conditions: wild-type CDK7, RNA PolII Ser5 phosphorylation, averaged over all measurements; for IC50: Homo sapiens, A549, A549 cells, read-out: CDK7_A549 Wild-type CDK7 (pIC50) (converted); for CDK7_A549 Wild-type CDK7 (pIC50): A549 cells
In short: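 A549 cells, seeded 1000/well in DMEM with 1% FBS and cultured 20 h, were treated with compound for 3 h at 37 °C. Ser5-phospho-Rpb1 CTD detected by immunofluorescence imaging after fixation and methanol permeabilization; IC50 from curve fit normalized to DMSO and 10 μM reference-compound controls.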

[3] = target: CDK7/cyclinH/MAT1 trimeric complex (Homo sapiens, UniProt P50613); assay: In vitro CDK7 assay, potency of irreversible covalent inhibitors (kinact/KI), coupled PK/LDH ADP readout at 340 nm; conditions: for CDK7 (kinact/KI, M^−1*s^−1): potency of irreversible covalent inhibitors
[4] = CDK7 (20 nM enz.) (KI, μM), 20 nM enzyme
[5] = read-out: CDK7 (20 nM enz.) (kinact, s^−1), 20 nM enzyme
[6] = read-out: CDK7 (20 nM enz.) (kinact/KI, M^−1*s^−1), 20 nM enzyme
[7] = CDK7 (KI(μM)), […], 1 mM ATP, room temperature, averaged values over all measurements
[8] = read-out: CDK7 (kinact, s^−1), kinact = maximal rate of inactivation, 1 mM ATP, room temperature, averaged values over all measurements
[9] = read-out: CDK7 (kinact/KI, M^−1*s^−1), potency of irreversible covalent inhibitors, 1 mM ATP, room temperature, averaged values over all measurements
[10] = read-out: CDK7 (20 nM enz.) (kobs/[I], M^−1*s^−1), 20 nM enzyme
[11] = 1 mM ATP, room temperature, averaged values over all measurements

Sequence of CDK7/cyclinH/MAT1 trimeric complex (P50613 whole entry): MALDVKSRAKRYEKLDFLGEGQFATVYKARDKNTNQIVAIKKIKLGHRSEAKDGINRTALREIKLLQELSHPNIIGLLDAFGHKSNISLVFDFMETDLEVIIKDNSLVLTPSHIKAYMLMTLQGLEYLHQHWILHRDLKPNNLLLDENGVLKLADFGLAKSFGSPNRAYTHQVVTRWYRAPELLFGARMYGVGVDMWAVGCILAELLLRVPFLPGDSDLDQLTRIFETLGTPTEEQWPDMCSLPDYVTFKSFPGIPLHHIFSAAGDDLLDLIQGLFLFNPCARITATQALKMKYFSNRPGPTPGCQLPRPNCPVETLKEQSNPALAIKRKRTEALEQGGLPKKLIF
Sequence of CDK7/cyclinH/MAT1 trimeric complex (P51946 whole entry partner): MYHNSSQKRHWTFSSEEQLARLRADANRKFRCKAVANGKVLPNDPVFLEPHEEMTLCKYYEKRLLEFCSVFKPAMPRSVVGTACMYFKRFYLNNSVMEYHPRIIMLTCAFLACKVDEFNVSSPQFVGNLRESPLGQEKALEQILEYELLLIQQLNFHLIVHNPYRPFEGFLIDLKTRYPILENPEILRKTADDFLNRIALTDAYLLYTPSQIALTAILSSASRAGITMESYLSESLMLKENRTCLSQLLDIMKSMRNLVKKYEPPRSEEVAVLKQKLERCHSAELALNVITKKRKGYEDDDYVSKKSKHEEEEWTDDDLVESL
Sequence of CDK7/cyclinH/MAT1 trimeric complex (P51948 whole entry partner): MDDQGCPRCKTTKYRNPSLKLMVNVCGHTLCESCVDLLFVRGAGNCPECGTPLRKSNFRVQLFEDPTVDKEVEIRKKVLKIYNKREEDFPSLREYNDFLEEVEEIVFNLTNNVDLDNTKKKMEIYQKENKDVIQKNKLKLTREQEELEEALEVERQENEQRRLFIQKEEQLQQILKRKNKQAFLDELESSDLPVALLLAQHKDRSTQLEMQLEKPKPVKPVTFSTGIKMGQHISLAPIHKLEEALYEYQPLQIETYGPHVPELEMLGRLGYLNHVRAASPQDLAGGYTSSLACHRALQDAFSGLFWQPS

| SMILES | melting point | IC50 [1] | IC50 [2] | Ki [3, 4] | kinact [3, 5] | kinact/KI [3, 6] | Ki [3, 7] | kinact [3, 8] | kinact/KI [3, 9] | CDK7_A549 mutant hCDK7(pIC50) [1] | CDK7_A549 Wild-type CDK7 (pIC50) [2] | kinact/KI [3, 10] | CDK7 (20 nM enz.) (kinact, s^−1) ([3]; 20 nM enzyme) | CDK7 (kinact/KI, M^−1*s^−1) [3, 11] |
| --- | --- | --- | --- | --- | --- | --- | --- | --- | --- | --- | --- | --- | --- | --- |
| C=CC(=O)N1CC(N2CCC(c3ccc4c(c3)Nc3nccc(-c5cnn(C)c5)c3[C@H](C)O4)CC2)C1 (single isomer, unassigned) [Compound 128] | 223.3 °C | > 10000 nM | 4470 nM | 10.2 µM | 0.000115 s⁻¹ | 11.3 M⁻¹ s⁻¹ | – | – | – | – | – | – | – | – |
| C=CC(=O)N1CC(N2CC[C@H](c3cc4c(c(C)n3)O[C@@H](C)c3c(N5CCOCC5)ccnc3N4)C2)C1 (single isomer, unassigned) [Compound 218] | > 300 °C | > 10000 nM | 8510 nM | – | – | 0.84 M⁻¹ s⁻¹ | – | – | – | – | – | – | – | – |
| C=CC(=O)N1CC[C@H](N2CCC(c3ccc4c(c3)Nc3ncc(F)c(N5CCOCC5)c3CO4)CC2)C1 (single isomer, unassigned) [Compound 222] | 138 °C | > 10000 nM | 97.7 nM | 0.18 µM | 7.49e-05 s⁻¹ | 416 M⁻¹ s⁻¹ | – | – | – | – | – | – | – | – |
| C=CC(=O)N1CC[C@@H](N2CCC(c3ccc4c(c3)Nc3ncc(F)c(N5CCOCC5)c3CO4)CC2)C1 (single isomer, unassigned) [Compound 223] | 106 °C | 7590 nM | 41.7 nM | 0.127 µM | 6.11e-05 s⁻¹ | 480 M⁻¹ s⁻¹ | – | – | – | – | – | – | – | – |
| C=CC(=O)N1CC(N2CCC(c3cc4c(c(C)n3)O[C@H](C)c3c(N5CCOCC5)ccnc3N4)CC2)C1 (single isomer, unassigned) [Compound 262] | 225 °C | > 10000 nM | 29.5 nM | 0.0323 µM | 3.71e-05 s⁻¹ | 1150 M⁻¹ s⁻¹ | – | – | – | – | – | – | – | – |
| C=CC(=O)N1CC(N2CCC(c3cc4c(cn3)O[C@H](C)c3c(N5CCOCC5)ccnc3N4)CC2)C1 (single isomer, unassigned) [Compound 263] | > 300 °C | > 3980 nM | 51.3 nM | 0.168 µM | 5.18e-05 s⁻¹ | 308 M⁻¹ s⁻¹ | – | – | – | – | – | – | – | – |
| C=CC(=O)N1CC(N2CCC(c3cc4c(c(C)n3)O[C@@H](C)c3c(N5CCOCC5)ccnc3N4)CC2)C1 (single isomer, unassigned) [Compound 265] | 288.5 °C | > 10000 nM | 2090 nM | – | – | – | – | – | – | – | – | – | – | – |
| C#Cc1cc(C2CCN(C3CN(C(=O)C=C)C3)CC2)cc2c1O[C@H](C)c1c(N3CCOCC3)ccnc1N2 (single isomer, unassigned) [Compound 268] | 236.7 °C | > 10000 nM | 1070 nM | 0.934 µM | 4.13e-05 s⁻¹ | 44.2 M⁻¹ s⁻¹ | – | – | – | – | – | – | – | – |
| C=CC(=O)N1CC(N2CCC(c3cc(C#N)c4c(c3)Nc3nccc(N5CCOCC5)c3[C@H](C)O4)CC2)C1 (single isomer, unassigned) [Compound 353] | 220.7 °C | > 10000 nM | 209 nM | 4.52 µM | 0.000132 s⁻¹ | 29.2 M⁻¹ s⁻¹ | – | – | – | – | – | – | – | – |
| C=C(C(=O)N1CC(N2CCC(c3cc4c(c(C)n3)O[C@@H](C)c3c(N5CCOCC5)ccnc3N4)CC2)C1)n1cccn1 (single isomer, unassigned) [Compound 523] | 148 °C | > 10000 nM | 97.7 nM | 0.0496 µM | 1.97e-05 s⁻¹ | 398 M⁻¹ s⁻¹ | – | – | – | – | – | – | – | – |
| C=C(C(=O)N1CC(N2CCC(c3cc4c(c(C)n3)O[C@H](C)c3c(N5CCOCC5)ccnc3N4)CC2)C1)n1cccn1 (single isomer, unassigned) [Compound 526] | 131.3 °C | > 2510 nM | 14.1 nM | 0.0767 µM | 2.61e-05 s⁻¹ | 340 M⁻¹ s⁻¹ | – | – | – | – | – | – | – | – |
| C=CC(=O)Nc1ccc(C(=O)Nc2ccc3c(c2)Nc2nccc(C4CCOCC4)c2CO3)cc1 [Compound 1] | 281.1 °C | ~8510 nM | 132 nM | 0.0456 µM | 5.77e-05 s⁻¹ | 1270 M⁻¹ s⁻¹ | 0.107 µM | 0.0003 s⁻¹ | 2030 M⁻¹ s⁻¹ | – | – | – | – | – |
| C=CC(=O)N1CC(N2CCC(c3ccc4c(c3)OCc3c(N5CCOCC5)ccnc3N4)CC2)C1 [Compound 35] | 117.9 °C | > 10000 nM | 692 nM | – | – | – | 0.123 µM | 0.000133 s⁻¹ | 1090 M⁻¹ s⁻¹ | – | – | – | – | – |
| C=CC(=O)N1CC(N2CCC(c3cc4c(cn3)OCc3c(N5CCOCC5)ccnc3N4)CC2)C1 [Compound 83] | 238.4 °C | – | – | – | – | – | – | – | – | <5 | 6.95 | 782 M⁻¹ s⁻¹ | – | – |
| C=CC(=O)N1CC(N2CCC(c3cc4c(c(C)n3)OCc3c(-c5cnn(C)c5)ccnc3N4)CC2)C1 [Compound 164] | 277.8 °C | > 10000 nM | 55 nM | 0.0786 µM | – | 1010 M⁻¹ s⁻¹ | – | – | – | – | – | – | 7.933e-05 s⁻¹ | – |
| C=CC(=O)N1CC(N2CCC(c3cc4c(c(C)n3)OCc3c(N5CCOCC5)ccnc3N4)CC2)C1 [Compound 173] | 236.9 °C | – | 64.6 nM | 0.0574 µM | 7.26e-05 s⁻¹ | 1260 M⁻¹ s⁻¹ | – | – | – | <5.4 | – | – | – | – |
| C=CC(=O)N1CC(N2CCC(c3cc4c(c(C5CC5)n3)OCc3c(N5CCOCC5)ccnc3N4)CC2)C1 [Compound 272] | 189.9 °C | > 10000 nM | 44.7 nM | 0.0212 µM | 2.13e-05 s⁻¹ | 1010 M⁻¹ s⁻¹ | – | – | – | – | – | – | – | – |
| Cc1nc(C2CCN(C3CN(C(=O)/C=C/CN(C)C)C3)CC2)cc2c1OCc1c(-c3cnn(C)c3)ccnc1N2 [Compound 540] | – | > 10000 nM | 550 nM | 0.0301 µM | 7.15e-05 s⁻¹ | 2310 M⁻¹ s⁻¹ | – | – | – | – | – | – | – | – |
| C=CC(=O)N1CC(N2CCC(c3ccc4c(c3)Nc3nccc(N5CCOCC5)c3CO4)CC2)C1 [compound 7] | – | – | – | – | – | – | – | – | – | <5 | 6.84 | – | – | 1065.34 M⁻¹ s⁻¹ |
| C=CC(=O)N1CC(N2CCC(c3ccc4c(c3)Nc3nccc(N5CCS(=O)(=O)CC5)c3CO4)CC2)C1 [compound 14] | – | – | – | 0.13 µM | 7.07e-05 s⁻¹ | 545 M⁻¹ s⁻¹ | – | – | – | <5 | 6.4 | – | – | 710 M⁻¹ s⁻¹ |
| C=CC(=O)N1CC(N2CCC(c3ccc4c(c3)Nc3nccc(C5CCOCC5)c3CO4)CC2)C1 [compound 15] | – | – | – | – | – | – | – | – | – | <5 | 7.26 | – | – | 320.6 M⁻¹ s⁻¹ |
| C=CC(=O)N1CC(N2CCC(c3ccc4c(c3)Nc3nccc(C5CCOCC5)c3CO4)CC2)C1 [compound 34] | – | – | – | – | – | – | – | – | – | <5 | 6.81 | 1030 M⁻¹ s⁻¹ | – | 2083.98 M⁻¹ s⁻¹ |

Reference: patent publication US20240254138A1, “TRICYCLIC PYRIMIDINES AS CYCLIN-DEPENDENT KINASE 7 (CDK7) INHIBITORS” (JANSSEN PHARMACEUTICA NV, priority 2021, published 2024)
